From US6809110B2 (Hoffmann-La Roche Inc., priority 2002, dated 2004)

melting point	SMILES
123 to 124 °C	CCCOC(Cc1ccc(OCCc2nc(-c3ccc(C)cc3)sc2C)c2ccccc12)C(=O)O (racemic) [Example 82, [rac]-3-{4-[2-(5-Methyl-2-p-tolyl-thiazol-4-yl)-ethoxy]-naphthalen-1-yl}-2-propoxy-propionic acid]
190 to 192 °C	COC(Cc1ccc(OCc2sc(-c3ccc(C(F)(F)F)cc3)nc2C)c2ccccc12)C(=O)O (racemic) [Example 136, [rac]-2-Methoxy-3-{4-[4-methyl-2-(4-trifluoromethyl-phenyl)-thiazol-5-ylmethoxy]-naphthalen-1-yl}-propionic acid]
146 to 148 °C	CCOC(Cc1ccc(OCCc2nc(-c3ccccc3)sc2C)c2ccsc12)C(=O)O (racemic) [Example 1, [rac]-2-Ethoxy-3-{4-[2-(5-methyl-2-phenyl-thiazol-4-yl)-ethoxy]-benzo[b]thiophen-7-yl}-propionic acid]
150 to 152 °C	COc1cc(OC)cc(-c2nc(CCOc3ccc(CC(OC(C)C)C(=O)O)c4sccc34)c(C)s2)c1 (racemic) [Example 85, [rac]-3-(4-{2-[2-(3,5-Dimethoxy-phenyl)-5-methyl-thiazol-4-yl]-ethoxy}-benzo[b]thiophen-7-yl)-2-isopropoxy-propionic acid]
178 to 179 °C	CCOC(Cc1ccc(OCc2sc(-c3ccc(C(F)(F)F)cc3)nc2C)c2ccsc12)C(=O)O (racemic) [Example 139, [rac]-2-Ethoxy-3-{4-[4-methyl-2-(4-trifluoromethyl-phenyl)-thiazol-5-ylmethoxy]-benzo[b]thiophen-7-yl}-propionic acid]
111 to 113 °C	CCOC(Cc1ccc(OCCc2nc(-c3ccc(C(C)C)cc3)sc2C)c2ccccc12)C(=O)O (racemic) [Example 77, [rac]-2-Ethoxy-3-(4-{2-[2-(4-isopropyl-phenyl)-5-methyl-thiazol-4-yl]-ethoxy}-naphthalen-1-yl)-propionic acid]
73 °C	Cc1sc(-c2ccccc2)nc1CCOc1ccc(CC(OC(C)C)C(=O)O)c2sccc12 (racemic) [Example 79, [rac]-2-Isopropoxy-3-{4-[2-(5-methyl-2-phenyl-thiazol-4-yl)-ethoxy]-benzo[b]thiophen-7-yl}-propionic acid]
120 to 122 °C	CCOC(Cc1ccc(OCCc2nc(-c3ccc(C(C)C)cc3)sc2C)c2ccsc12)C(=O)O (racemic) [Example 75, [rac]-2-Ethoxy-3-(4-{2-[2-(4-isopropyl-phenyl)-5-methyl-thiazol-4-yl]-ethoxy}-benzo[b]thiophen-7-yl)-propionic acid]
90 to 93 °C	CCOC(Cc1ccc(OCCc2nc(-c3ccc(C(C)(C)C)cc3)sc2C)c2ccccc12)C(=O)O (racemic) [Example 73, [rac]-3-(4-{2-[2-(4-tert-Butyl-phenyl)-5-methyl-thiazol-4-yl]-ethoxy}-naphthalen-1-yl)-2-ethoxy-propionic acid]
133 to 135 °C	CCOC(Cc1ccc(OCCc2nc(-c3cc(OC)cc(OC)c3)sc2C)c2ccccc12)C(=O)O (racemic) [Example 88, [rac]-3-(4-{2-[2-(3,5-Dimethoxy-phenyl)-5-methyl-thiazol-4-yl]-ethoxy}-naphthalen-1-yl)-2-ethoxy-propionic acid]
76 °C	CCCOC(Cc1ccc(OCCc2nc(-c3ccc(C(C)(C)C)cc3)sc2C)c2ccsc12)C(=O)O (racemic) [Example 87, [rac]-3-(4-{2-[2-(4-tert-Butyl-phenyl)-5-methyl-thiazol-4-yl]-ethoxy}-benzo[b]thiophen-7-yl)-2-propoxy-propionic acid]
155 to 156 °C	COC(Cc1ccc(OCCc2nc(-c3ccc(C)cc3)sc2C)c2ccccc12)C(=O)O (racemic) [Example 81, [rac]-2-Methoxy-3-{4-[2-(5-methyl-2-p-tolyl-thiazol-4-yl)-ethoxy]-naphthalen-1-yl}-propionic acid]
95 to 99 °C	CCCOC(Cc1ccc(OCCc2nc(-c3ccccc3)sc2C)c2ccccc12)C(=O)O (racemic) [Example 80, [rac]-3-{4-[2-(5-Methyl-2-phenyl-thiazol-4-yl)-ethoxy]-naphthalen-1-yl}-2-propoxy-propionic acid]
140 to 143 °C	CCOC(Cc1ccc(OCCc2nc(-c3ccccc3)sc2C)c2ccccc12)C(=O)O (racemic) [Example 51, [rac]-2-Ethoxy-3-{4-[2-(5-methyl-2-phenyl-thiazol-4-yl)-ethoxy]-naphthalen-1-yl}-propionic acid]
140 to 141 °C	CCOC(Cc1ccc(OCCc2nc(-c3ccc(C)cc3)sc2C)c2ccccc12)C(=O)O (racemic) [Example 78, [rac]-2-Ethoxy-3-{4-[2-(5-methyl-2-p-tolyl-thiazol-4-yl)-ethoxy]-naphthalen-1-yl}-propionic acid]
126 to 127 °C	CCOC(Cc1ccc(OCCc2nc(-c3ccc(C)cc3)sc2C)c2ccsc12)C(=O)O (racemic) [Example 72, [rac]-2-Ethoxy-3-{4-[2-(5-methyl-2-p-tolyl-thiazol-4-yl)-ethoxy]-benzo[b]thiophen-7-yl}-propionic acid]
75 to 85 °C	Cc1sc(-c2ccc(C(C)(C)C)cc2)nc1CCOc1ccc(CC(OC(C)C)C(=O)O)c2ccccc12 (racemic) [Example 86, [rac]-3-(4-{2-[2-(4-tert-Butyl-phenyl)-5-methyl-thiazol-4-yl]-ethoxy}-naphthalen-1-yl)-2-isopropoxy-propionic acid]
156 to 157 °C	COc1cc(OC)cc(-c2nc(CCOc3ccc(CC(OC)C(=O)O)c4sccc34)c(C)s2)c1 (racemic) [Example 84, [rac]-3-(4-{2-[2-(3,5-Dimethoxy-phenyl)-5-methyl-thiazol-4-yl]-ethoxy}-benzo[b]thiophen-7-yl)-2-methoxy-propionic acid]
186 to 188 °C	CCOC(Cc1ccc(OCc2sc(-c3ccc(C(F)(F)F)cc3)nc2C)c2ccccc12)C(=O)O (racemic) [Example 137, [rac]-2-Ethoxy-3-{4-[4-methyl-2-(4-trifluoromethyl-phenyl)-thiazol-5-ylmethoxy]-naphthalen-1-yl}-propionic acid]
152 to 154 °C	CCOC(Cc1ccc(OCCc2nc(-c3ccc(C(C)(C)C)cc3)sc2C)c2ccsc12)C(=O)O (racemic) [Example 74, [rac]-3-(4-{2-[2-(4-tert-Butyl-phenyl)-5-methyl-thiazol-4-yl]-ethoxy}-benzo[b]thiophen-7-yl)-2-ethoxy-propionic acid]
140 to 142 °C (dec.)	COC(Cc1ccc(OCc2sc(-c3ccc(C(F)(F)F)cc3)nc2C)c2ccsc12)C(=O)O (racemic) [Example 138, [rac]-2-Methoxy-3-{4-[4-methyl-2-(4-trifluoromethyl-phenyl)-thiazol-5-ylmethoxy]-benzo[b]thiophen-7-yl}-propionic acid]
148 to 150 °C	CCOC(Cc1ccc(OCCc2nc(-c3cc(OC)cc(OC)c3)sc2C)c2ccsc12)C(=O)O (racemic) [Example 83, [rac]-3-(4-{2-[2-(3,5-Dimethoxy-phenyl)-5-methyl-thiazol-4-yl]-ethoxy}-benzo[b]thiophen-7-yl)-2-ethoxy-propionic acid]
